Values belong to the compound of their own block, whether it stands above or below them.
What was measured:
Experiment in all cases: pNP release at […] nm, Lineweaver-Burk
Settings in all cases: 50 mM Tris-HCl pH 7.5, 40 °C, 15 min
[1] = tested on: T1, protein 6 (gene 6 product, fosmid NT18-17); format: biochemical
T1 construct: full-length, pET28b(+) His-tags at N and C termini, E. coli Origami2(DE3) pLysS, ~22 kDa, gene amplicon 673 bp; alpha-glucosidase assignment unusual, host contaminant possible

[2] = tested on: T2, protein 5 (gene 5 product, fosmid 10BT); format: biochemical
T2 construct: full-length, pET28b(+) His-tags at N and C termini, E. coli Origami2(DE3) pLysS, ~45 kDa, gene amplicon 1262 bp; alpha-glucosidase assignment unusual, host contaminant possible

[3] = tested on: T3, protein 2 (gene 2 product, fosmid T5-5); format: biochemical, uncultured bacterium
T3 construct: full-length, pET28b(+) His-tags at N and C termini, E. coli Origami2(DE3) pLysS, ~85 kDa, gene amplicon 2410 bp

[4] = tested on: T4, protein 1 (gene 1 product, fosmid NT2-2); format: biochemical, uncultured bacterium
T4 construct: full-length, pET28b(+) His-tags at N and C termini, E. coli Origami2(DE3) pLysS, ~116 kDa, gene amplicon 3146 bp

Km [1]: 21400 µM
Km [2]: 7400 µM
Structure (SMILES): O=[N+]([O-])c1ccc(O[C@H]2O[C@H](CO)[C@@H](O)[C@H](O)[C@H]2O)cc1 [pNP-α-D-glucopyranoside]

Km [3]: 300 µM
Structure (SMILES): O=[N+]([O-])c1ccc(O[C@@H]2OC[C@H](O)[C@H](O)[C@H]2O)cc1 [pNP-α-L-arabinopyranoside]

Km [4]: 100 µM
Structure (SMILES): O=[N+]([O-])c1ccc(O[C@@H]2O[C@H](CO)[C@H](O)[C@H](O)[C@H]2O)cc1 [pNP-β-D-galactopyranoside]

Km [3]: 1000 µM
Structure (SMILES): O=[N+]([O-])c1ccc(O[C@@H]2OC[C@@H](O)[C@H](O)[C@H]2O)cc1 [pNP-β-D-xylopyranoside]

Reference: article PMC5457731, “Molecular cloning, expression, and characterization of four novel thermo-alkaliphilic enzymes retrieved from a metagenomic library” (Biotechnology for Biofuels, 2017)
